The source of these data is patent publication US7342027B2 (Yuhan Corporation, priority 2002, dated 2008).

Molecules are shown by their SMILES. Where a name gives a salt, the structure may show the parent alone.

This assay addresses T1, Recombinant human cathepsin K (Homo sapiens, UniProt P43235).
T1 construct: made in house
T1 sequence (P43235 115-329): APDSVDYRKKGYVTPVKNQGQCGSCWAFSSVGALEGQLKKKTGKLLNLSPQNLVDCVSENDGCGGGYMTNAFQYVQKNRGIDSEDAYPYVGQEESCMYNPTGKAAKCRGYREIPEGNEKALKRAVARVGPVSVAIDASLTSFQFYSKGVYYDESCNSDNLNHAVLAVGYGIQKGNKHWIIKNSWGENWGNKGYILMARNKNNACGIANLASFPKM
In words: Inhibition of cathepsin K activity (Z-Phe-Arg-AMC fluorescence assay). The class given is biochemical. Conditions: 25 uM Z-Phe-Arg-AMC, pH 5.5, 1 hour at 37° C. The method, then: Test 1: Inhibition of Cathepsin K Activity
Recombinant human cathepsin K was prepared in accordance with Biol, Pharm. Bull, 19(8), 1026-1031 (1996) and J. Biol. Chem. 271, 2126-2132 (1996). Stock solutions of 2.5 mM Z-Phe-Arg-AMC (BACHEM, 1-1160) and all inhibitors were prepared in dimethyl sulfoxide. In vitro assays for cathepsin K were conducted with 25 uM Z-Phe-Arg-AMC as a substrate at pH 5.5 in 100 mM Na acetate buffer containing 20 mM cysteine and 5 mM EDTA in the presence of 2% final concentration of DMSO. Reaction was initiated by the addition of enzyme to samples, which were then incubated for 1 hour at 37° C. The fluorescence was monitored at 460 nm (excitation wavelength 360 nm) using fluorescence plate reader.
The concentrations of the test compounds, which inhibit 50% of cathepsin K activity, are represented as IC50 in Table 1.
Turning to `Cc1ccc(C(=O)NC2(C(=O)NC3CCN(c4ccccc4S(C)(=O)=O)CC3=O)CCCCC2)o1` (stereo not drawn) [Example 123, 4-[N-[1-[N-(5-methyl-furan-2-ylcarbonyl)amino]cyclohexanecarbonyl]amino]-1-(2-methanesulfonylphenyl)piperidin-3-one], the IC50 was 4.97 nM.

`CS(=O)(=O)c1ccccc1N1CCC(NC(=O)C2(NC(=O)c3cc4cc(OCCN5CCCCC5)ccc4o3)CCCCC2)C(=O)C1` (stereo not drawn) [Example 163, 4-[N-[1-[N-(5-(2-piperidinethoxy)benzofuran-2-ylcarbonyl)amino]cyclohexanecarbonyl]amino]-1-(2-methanesulfonylphenyl)piperidin-3-one]: the IC50 came to 0.55 nM.

Consider `CS(=O)(=O)c1ccccc1N1CCC(NC(=O)C2(NC(=O)c3ccc4ccccc4n3)CCCCC2)C(=O)C1` (stereo not drawn) [Example 136, 4-[N-[1-[N-(quinolin-2-ylcarbonyl)amino]cyclohexanecarbonyl]amino]-1-(2-methanesulfonylphenyl)piperidin-3-one], for which the IC50 amounted to 1.62 nM. The same measure for `O=Cc1c(Cl)cccc1N1CCC(NC(=O)C2(NC(=O)c3cc4ccccc4o3)CCCCC2)C(=O)C1` (stereo not drawn) [Example 19, 4-[N-[1-[N-(benzofuran-2-ylcarbonyl)amino]cyclohexanecarbonyl]amino]-1-(3-chloro-2-formylphenyl)piperidin-3-one]: 4.41 nM; for `O=C(NC1(C(=O)NC2CCN(c3ccc(Cl)cc3F)CC2=O)CCCCC1)c1cc2ccccc2s1` (stereo not drawn) [Example 131, 4-[N-[1-[N-(benzothiophen-2-ylcarbonyl)amino]cyclohexanecarbonyl]amino]-1-(4-chloro-2-fluoro-phenyl)piperidin-3-one]: 4.11 nM. The result for `CS(=O)(=O)c1ccccc1N1CCC(NC(=O)C2(NC(=O)c3cc4cc(OCCN5CCCCC5)ccc4o3)CCCCC2)C(=O)C1` (stereo not drawn) [Example 166, 4-[N-[1-[N-(5-(2-piperidinethoxy)benzofuran-2-ylcarbonyl)amino]cyclohexanecarbonyl]amino]-1-(2-methanesulfonylphenyl)piperidin-3-one hydrochloride] reads 0.71 nM. The result for `CN(C)c1ccc(C(=O)NC2(C(=O)NC3CCN(c4ccc(F)cc4S(C)(=O)=O)CC3=O)CCCCC2)cc1` (stereo not drawn) [Example 173, 4-[N-[1-[N-(4-(dimethylamino)benzoyl)amino]cyclohexanecarbonyl]amino]-1-(4-fluoro-2-methanesulfonylphenyl)piperidin-3-one hydrochloride] reads 1.59 nM; that for `CC(C)S(=O)(=O)c1ccccc1N1CCC(NC(=O)C2(NC(=O)c3ccc(Cl)s3)CCCCC2)C(=O)C1` (stereo not drawn) [Example 116, 4-[N-[1-[N-(5-chloro-thiophen-2-ylcarbonyl)amino]cyclohexanecarbonyl]amino]-1-(2-isopropanesulfonylphenyl)piperidin-3-one], 2.35 nM; that for `CS(=O)(=O)c1ccccc1N1CCC(NC(=O)C2(NC(=O)c3cc(N4CCCC4=O)co3)CCCCC2)C(=O)C1` (stereo not drawn) [Example 168, 4-[N-[1-[N-(4-(2-oxopyrrolidine)furan-2-ylcarbonyl)amino]cyclohexanecarbonyl]amino]-1-(2-methanesulfonylphenyl)piperidin-3-one], 15.8 nM. `CCOc1ccccc1N1CCC(NC(=O)C2(NC(=O)c3cc4ccccc4o3)CCCCC2)C(=O)C1` (stereo not drawn) [Example 27, 4-[N-[1-[N-(benzofuran-2-ylcarbonyl)amino]cyclohexanecarbonyl]amino]-1-(2-ethoxyphenyl)piperidin-3-one]: the IC50 is 8.07 nM. The result for `CS(=O)(=O)c1ccccc1N1CCC(NC(=O)C2(NC(=O)c3ccc(OCCN4CCCC4)cc3)CCCCC2)C(=O)C1` (stereo not drawn) [Example 156, 4-[N-[1-[N-(4-(2-pyrrolidinethoxy)benzoyl)amino]cyclohexanecarbonyl]amino]-1-(2-methanesulfonylphenyl)piperidin-3-one] reads 1.9 nM; that for `CN(C)c1ccc(C(=O)NC2(C(=O)NC3CCN(c4ccc(F)cc4S(C)(=O)=O)CC3=O)CCCCC2)cc1` (stereo not drawn) [Example 171, 4-[N-[1-[N-(4-(dimethylamino)benzoyl)amino]cyclohexanecarbonyl]amino]-1-(4-fluoro-2-methanesulfonylphenyl)piperidin-3-one], 0.77 nM. The result for `CCSc1ccccc1N1CCC(NC(=O)C2(NC(=O)c3cc4ccccc4o3)CCCCC2)C(=O)C1` (stereo not drawn) [Example 42, 4-[N-[1-[N-(benzofuran-2-ylcarbonyl)amino]cyclohexanecarbonyl]amino]-1-(2-ethylthiophenyl)piperidin-3-one] reads 3.87 nM; that for `CS(=O)(=O)Nc1cc(F)ccc1N1CCC(NC(=O)C2(NC(=O)c3ccc(OCCN4CCOCC4)cc3)CCCCC2)C(=O)C1` (stereo not drawn) [Example 169, 4-[N-[1-[N-(4-(2-morpholinethoxy)benzoyl)amino]cyclohexanecarbonyl]amino]-1-(4-fluoro-2-methanesulfonylaminophenyl)piperidin-3-one], 0.58 nM. The result for `Cc1c(C(=O)NC2(C(=O)NC3CCN(c4ccccc4S(C)(=O)=O)CC3=O)CCCCC2)oc2ccccc12` (stereo not drawn) [Example 133, 4-[N-[1-[N-(3-methyl-benzofuran-2-ylcarbonyl)amino]cyclohexanecarbonyl]amino]-1-(2-methanesulfonylphenyl)piperidin-3-one] reads 1.22 nM; that for `CC(=O)c1ccccc1N1CCC(NC(=O)C2(NC(=O)c3cc4ccccc4o3)CCCCC2)C(=O)C1` (stereo not drawn) [Example 6, 4-[N-[1-[N-(benzofuran-2-ylcarbonyl)amino]cyclohexanecarbonyl]amino]-1-(2-acetylphenyl)piperidin-3-one], 2.69 nM; that for `CC1(C)CN(c2cc(F)ccc2N2CCC(NC(=O)C3(NC(=O)c4ccco4)CCCCC3)C(=O)C2)C1=O` (stereo not drawn) [Example 92, 4-[N-[1-[N-(furan-2-ylcarbonyl)amino]cyclohexanecarbonyl]amino]-1-[4-fluoro-2-(3,3-dimethylazetidin-2-one-1-yl)phenyl]piperidin-3-one], 1.45 nM. For `CC(C)Oc1ccccc1N1CCC(NC(=O)C2(NC(=O)c3cc4ccccc4o3)CCCCC2)C(=O)C1` (stereo not drawn) [Example 41, 4-[N-[1-[N-(benzofuran-2-ylcarbonyl)amino]cyclohexanecarbonyl]amino]-1-(2-isopropoxyphenyl)piperidin-3-one], the IC50 came to 7.73 nM.

In the case of `CS(=O)(=O)c1ccc(N2CCC(NC(=O)C3(NC(=O)c4cc5ccccc5o4)CCCCC3)C(=O)C2)cc1` (stereo not drawn) [Example 5, 4-[N-[1-[N-(benzofuran-2-ylcarbonyl)amino]cyclohexanecarbonyl]amino]-1-(4-methanesulfonylphenyl)piperidin-3-one], the IC50 came to 5.05 nM. The same measure for `CS(=O)(=O)c1ccccc1N1CCC(NC(=O)C2(NC(=O)c3ccc(N4CCCC4=O)cc3)CCCCC2)C(=O)C1` (stereo not drawn) [Example 167, 4-[N-[1-[N-(4-(2-oxopyrrolidine)benzoyl)amino]cyclohexanecarbonyl]amino]-1-(2-methanesulfonylphenyl)piperidin-3-one]: 3.07 nM; for `CC1(C)CN(c2ccccc2N2CCC(NC(=O)C3(NC(=O)c4cc5ccccc5o4)CCCCC3)C(=O)C2)C1=O` (stereo not drawn) [Example 43, 4-[N-[1-[N-(benzofuran-2-ylcarbonyl)amino]cyclohexanecarbonyl]amino]-1-[2-(3,3-dimethylazetidin-2-one-1-yl)phenyl]piperidin-3-one]: 4.97 nM. The result for `CS(=O)(=O)c1ccccc1N1CCC(NC(=O)C2(NC(=O)c3ccc(C(F)(F)F)cc3)CCCCC2)C(=O)C1` (stereo not drawn) [Example 154, 4-[N-[1-[N-(4-trifluoromethylbenzoyl)amino]cyclohexanecarbonyl]amino]-1-(2-methanesulfonylphenyl)piperidin-3-one] reads 1.37 nM. The result for `CS(=O)(=O)c1ccccc1N1CCC(NC(=O)C2(NC(=O)c3ccc(-c4ccccc4)cc3)CCCCC2)C(=O)C1` (stereo not drawn) [Example 153, 4-[N-[1-[N-(4-biphenylcarbonyl)amino]cyclohexanecarbonyl]amino]-1-(2-methanesulfonylphenyl)piperidin-3-one] reads 0.36 nM; that for `O=C(NC1(C(=O)NC2CCN(c3ccc(F)cc3N3CCCC3=O)CC2=O)CCCCC1)c1ccco1` (stereo not drawn) [Example 95, 4-[N-[1-[N-(furan-2-ylcarbonyl)amino]cyclohexanecarbonyl]amino]-1-[4-fluoro-2-(pyrrolidin-2-one-1-yl)phenyl]piperidin-3-one], 10.8 nM; that for `CCOC(=O)Nc1ccccc1N1CCC(NC(=O)C2(NC(=O)c3cc4ccccc4o3)CCCCC2)C(=O)C1` (stereo not drawn) [Example 48, 4-[N-[1-[N-(benzofuran-2-ylcarbonyl)amino]cyclohexanecarbonyl]amino]-1-[2-[N-(ethoxycarbonyl)amino]phenyl]piperidin-3-one], 0.67 nM.

For the molecule `CS(=O)(=O)c1ccccc1N1CCC(NC(=O)C2(NC(=O)c3cc4ccccc4s3)CCCCC2)C(=O)C1` (stereo not drawn) [Example 128, 4-[N-[1-[N-(benzothiophen-2-ylcarbonyl)amino]cyclohexanecarbonyl]amino]-1-(2-methanesulfonylphenyl)piperidin-3-one], the IC50 came out at 0.67 nM. The result for `CS(=O)(=O)c1c(F)cccc1N1CCC(NC(=O)C2(NC(=O)c3ccco3)CCCCC2)C(=O)C1` (stereo not drawn) [Example 77, 4-[N-[1-[N-(furan-2-ylcarbonyl)amino]cyclohexanecarbonyl]amino]-1-(3-fluoro-2-methylsulfonylphenyl)piperidin-3-one] reads 5.97 nM.

A word on the IC50: it is the concentration at which inhibition is half-maximal.
